According to US20110046191A1, “COMBINATION OF A MUSCARINIC RECEPTOR ANTAGONIST AND A BETA-2-ADRENOCEPTOR AGONIST” (ARGENTA DISCOVERY LTD., priority 2007, published 2011):
Several values for one entry are separate records, joined by “and”; a condition that tells them apart may be missing. Equal values may be shown once. Where a name gives a salt, the structure may show the parent alone.

Experiments:
[1] = biological target: T1, Adrenergic β2 (Homo sapiens, UniProt P07550); experiment: Adrenergic β2 mediated cAMP production in H292 cells (AlphaScreen); format: cell-based; conditions: Intrinsic Activity as a fraction relative to the maximum activity of formoterol
T1 construct: Adherent H292 cells were removed from tissue culture flasks; endogenous in cells; host or cells: H292 cells
Procedure: Adrenergic β2 Mediated cAMP Production
H292 cells were grown in 225 cm2 flasks incubator at 37° C., 5% CO2 in RPMI medium containing, 10% (v/v) FBS (foetal bovine serum) and 2 mM L-glutamine.
Adherent H292 cells were removed from tissue culture flasks by treatment with Accutase™ cell detachment solution for 15 minutes. Flasks were incubated for 15 minutes in a humidified incubator at 37° C., 5% CO2. Detached cells were re-suspended in RPMI media (containing 10% (v/v) FBS and 2 mM L-glutamine) at 0.05×10^6 cells per mL. 5000 cells in 100 μL were added to each well of a tissue-culture-treated 96-well plate and the cells incubated overnight in a humidified incubator at 37° C., 5% CO2. The culture media was removed and cells were washed twice with 100 μL assay buffer and replaced with 50 μL assay buffer (HBSS solution containing 10 mM HEPES pH7.4 and 5 mM glucose). Cells were rested at room temperature for 20 minutes after which time 25 μL of rolipram (1.2 mM made up in assay buffer containing 2.4% (v/v) dimethylsulphoxide) was added. Cells were incubated with rolipram for 10 minutes after which time Compound A was added and the cells were incubated for 60 minutes at room temperature. The final rolipram concentration in the assay was 300 μM and final vehicle concentration was 1.6% (v/v) dimethylsulphoxide. The reaction was stopped by removing supernatants, washing once with 100 μL assay buffer and replacing with 50 μL lysis buffer. The cell monolayer was frozen at −80° C. for 30 minutes (or overnight).
The concentration of cAMP (cyclic adenosine monophosphate) in the cell lysate was determined using AlphaScreen™ methodology. […] The AlphaScreen™ signal was measured using an EnVision spectrophotometer (Perkin-Elmer Inc.) with the recommended manufacturer's settings. cAMP concentrations were determined by reference to a calibration curve determined in the same experiment using standard cAMP concentrations. […] Intrinsic Activity was expressed as a fraction relative to the maximum activity determined for formoterol in each experiment.

[2] = biological target: T2, recombinant human α1D receptor (Homo sapiens, UniProt P25100); experiment: Adrenergic α1D selectivity binding assay ([3H]-prazosin); conditions: inhibition of [3H]-prazosin binding; read-out: α1 bind pIC50 (converted)
T2 construct: expressed in transfected cells; host or cells: HEK293
T2 sequence (P25100 1-572): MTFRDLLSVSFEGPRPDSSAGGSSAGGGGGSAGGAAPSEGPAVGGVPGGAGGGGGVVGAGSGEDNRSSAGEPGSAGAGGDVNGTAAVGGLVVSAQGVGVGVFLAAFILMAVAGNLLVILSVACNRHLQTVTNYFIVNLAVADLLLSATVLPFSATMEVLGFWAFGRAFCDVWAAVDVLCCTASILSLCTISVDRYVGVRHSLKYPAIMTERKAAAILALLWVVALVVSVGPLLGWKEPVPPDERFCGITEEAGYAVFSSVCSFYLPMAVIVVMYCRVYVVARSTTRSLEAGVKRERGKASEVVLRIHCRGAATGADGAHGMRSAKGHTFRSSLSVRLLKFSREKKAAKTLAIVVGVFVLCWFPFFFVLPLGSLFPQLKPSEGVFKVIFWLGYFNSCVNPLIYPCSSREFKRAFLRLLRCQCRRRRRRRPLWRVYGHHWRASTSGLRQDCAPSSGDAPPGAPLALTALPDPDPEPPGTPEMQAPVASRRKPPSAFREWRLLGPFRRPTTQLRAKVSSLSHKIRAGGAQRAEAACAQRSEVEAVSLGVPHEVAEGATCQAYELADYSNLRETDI
Procedure: Membranes were prepared from human embryonic kidney 293 (HEK293) cells expressing recombinant human α1D receptor. These were diluted in Assay Buffer (50 mM HEPES, 1 mM EDTA, 0.1% gelatin, pH 7.4) to provide a final concentration of membranes that gave a clear window between maximum and minimum specific binding.
Assays were performed in U-bottomed 96-well polypropylene plates. 10 μL [^3H]-prazosin (0.3 nM final concentration) and 10 μL of Compound A (10× final concentration) were added to each test well. For each assay plate 8 replicates were obtained for [^3H]-prazosin binding in the presence of 10 μL vehicle (10% (v/v) DMSO in Assay Buffer; defining maximum binding) or 10 μL BMY7378 (10 μM final concentration; defining non-specific binding (NSB)). Membranes were then added to achieve a final volume of 100 μL. […] Five washes with 250 μL wash buffer (50 mM HEPES, 1 mM EDTA, pH 7.4) were performed at 4° C. to remove unbound radioactivity. […] The plates were sealed (TopSeal A) and filter-bound radioactivity was measured with a scintillation counter (TopCount, Packard BioScierice) using a 3-minute counting protocol.
Total specific binding (B0) was determined by subtracting the mean NSB from the mean maximum binding. […]

[3] = biological target: T3, recombinant human adrenergic beta 1 receptors (Homo sapiens, UniProt P08588); experiment: Adrenergic β1 selectivity binding assay ([125I]-Iodocyanopindolol); conditions: inhibition of [125I]-Iodocyanopindolol binding; read-out: β1 bind p IC50
T3 construct: purchased Euroscreen
Procedure: Membranes containing recombinant human adrenergic beta 1 receptors were obtained from Euroscreen. These were diluted in Assay Buffer (50 mM HEPES, 1 mM EDTA, 120 mM NaCl, 0.1% gelatin, pH 7.4) to provide a final concentration of membranes that gave a clear window between maximum and minimum specific binding.
Assays were performed in U-bottomed 96-well polypropylene plates. […] For each assay plate 8 replicates were obtained for [^125I]-Iodocyanopindolol binding in the presence of 10 μL vehicle (10% (v/v) DMSO in Assay Buffer; defining maximum binding) or 10 μL Propranolol (10 μM final concentration; defining non-specific binding (NSB)). Membranes were then added to achieve a final volume of 100 μL. […] Five washes with 250 μL wash buffer (50 mM HEPES, 1 mM EDTA, 120 mM NaCl, pH 7.4) were performed at 4° C. to remove unbound radioactivity. The plates were dried then sealed from underneath using Packard plate sealers and MicroScint-O (50 μL) was added to each well. The plates were sealed (TopSeal A) and filter-bound radioactivity was measured with a scintillation counter (TopCount, Packard BioScience) using a 3-minute counting protocol.
Total specific binding (B0) was determined by subtracting the mean NSB from the mean maximum binding. NSB values were also subtracted from values from all other wells.

[4] = Gravimetric vapour sorption (GVS); format: physicochemical; conditions: at 80% RH, ambient temperature
Procedure: GVS profiles were measured using a Dynamic Vapour Sorption DVS-1 instrument. The solid sample ca. 1-5 mg was placed into a glass vessel and the weight of the sample was recorded during a dual cycle step method (40 to 90 to 0 to 90 to 0% relative humidity (RH), in steps of 10% RH). GVS profiles were recorded at ambient temperature.

[5] = Deaggregation properties of micronised Salt Form A (Fine Particle Fraction); format: physicochemical; conditions: micronised material, across 0-75% RH
Text: ‘Salt Form A’ was Micronised in a 50 mm jet mill, with ejector pressure 5 bar and milling pressure 1.5-2 bar, giving (90% yield). Particle size of the micronised material as determined by Malvern Laser Diffraction with dry powder feeder was d(0.1) 0.77 μm: d(0.5), 1.45μ: d(0.9): 2.65 μm.

[6] = system: Methacholine-induced bronchoconstriction in the guinea pig; experiment: Lung function in anaesthetised guinea pigs: methacholine-induced bronchoconstriction; format: in vivo; conditions: 2 hours prior to methacholine, after 5 μg/kg methacholine i.v.
Procedure: Evaluation of Lung Function in Anaesthetised Guinea Pigs.
Male Dunkin-Hartley guinea pigs (300-600 g) were weighed and dosed with vehicle (0.05M phosphate, 0.1% Tween 80, 0.6% saline, pH 6) or compound via the intratracheal route under recoverable gaseous anaesthesia (5% halothane in oxygen). Animals were dosed with compound or vehicle two hours prior to the administration of methacholine. Guinea pigs were anaesthetised with pentobarbitone (1 mL/kg of 60 mg/mL solution i.p.) approximately 30 minutes prior to the first bronchoconstrictor administration. The trachea was cannulated and the animal ventilated using a constant volume respiratory pump (Harvard Rodent Ventilator model 683) at a rate of 60 breath/min and a tidal volume of 5 mL/kg. A jugular vein was cannulated for the administration of methacholine or maintenance anaesthetic (0.1 mL of pentobarbitone solution, 60 mg/mL, as required).
The animals were transferred to a Flexivent System (SCIREQ, Montreal, Canada) in order to measure airway resistance. The animals were ventilated (quasi-sinusoidal ventilation pattern) at 60 breaths/min at a tidal volume of 5 mL/kg. A positive end expiratory pressure of 2-3 cm H2O was applied. Respiratory resistance was measured using the Flexivent “snapshot” facility (1 second duration, 1 Hz frequency). Once a stable baseline resistance value had been obtained the animals were given methacholine in ascending doses (0.5, 1, 2, 3 and 5 μg/kg, i.v) at approximately 4-minute intervals via the jugular catheter. After each administration of bronchoconstrictor the peak resistance value was recorded. Guinea pigs were euthanised with approximately 1.0 mL pentobarbitone sodium (Euthatal) intravenously after the completion of the lung function measurements.
Percentage bronchoprotection produced by a compound was calculated at each dose of brochoconstrictor as follows:
Where % change Rveh is the mean of the maximum percentage change in airway resistance in the vehicle treated group. The results reported were measured after 5 μg/kg methacholine and were expressed as percentage bronchoprotection (mean±s.e.mean).
Guinea pigs were dosed with vehicle, 3 and 27 μg/kg compound (BA1), 0.2 μg/kg compound (MA2) (Crystalline Form A) or a combination of 3 μg/kg Compound (BA1) and 0.2 μg/kg Compound (MA2) via the intratracheal route. Administration of increasing intravenous doses of methacholine (0.5, 1, 2, 3 and 5 μg/kg) evoked dose-related bronchoconstriction in the vehicle treated animals ranging from 13±2.6% at 0.5 μg/kg to 2530±280% at 5 μg/kg two hours after vehicle administration (n=9).
[…] Administration of increasing intravenous doses of methacholine (0.5, 1, 2, 3 and 5 μg/kg) evoked dose-related bronchoconstriction in the vehicle treated animals ranging from 14±2.6% at 0.5 μg/kg to 2240±269% at 5 μg/kg two hours after vehicle administration (n=10).

[7] = BA1 27 μg/kg intratracheal, dihydrobromide

T1 sequence (P07550 whole entry): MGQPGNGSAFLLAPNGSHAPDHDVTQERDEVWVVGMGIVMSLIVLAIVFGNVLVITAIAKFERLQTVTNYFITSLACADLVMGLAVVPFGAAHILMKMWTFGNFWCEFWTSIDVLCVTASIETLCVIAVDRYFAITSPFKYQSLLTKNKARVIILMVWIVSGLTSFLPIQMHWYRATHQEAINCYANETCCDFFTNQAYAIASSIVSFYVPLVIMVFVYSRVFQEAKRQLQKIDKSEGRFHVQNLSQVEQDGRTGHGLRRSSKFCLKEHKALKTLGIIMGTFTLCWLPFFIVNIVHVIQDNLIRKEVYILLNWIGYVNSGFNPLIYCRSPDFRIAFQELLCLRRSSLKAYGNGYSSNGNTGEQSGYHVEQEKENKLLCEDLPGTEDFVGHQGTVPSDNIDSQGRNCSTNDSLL
T3 sequence (P08588 whole entry): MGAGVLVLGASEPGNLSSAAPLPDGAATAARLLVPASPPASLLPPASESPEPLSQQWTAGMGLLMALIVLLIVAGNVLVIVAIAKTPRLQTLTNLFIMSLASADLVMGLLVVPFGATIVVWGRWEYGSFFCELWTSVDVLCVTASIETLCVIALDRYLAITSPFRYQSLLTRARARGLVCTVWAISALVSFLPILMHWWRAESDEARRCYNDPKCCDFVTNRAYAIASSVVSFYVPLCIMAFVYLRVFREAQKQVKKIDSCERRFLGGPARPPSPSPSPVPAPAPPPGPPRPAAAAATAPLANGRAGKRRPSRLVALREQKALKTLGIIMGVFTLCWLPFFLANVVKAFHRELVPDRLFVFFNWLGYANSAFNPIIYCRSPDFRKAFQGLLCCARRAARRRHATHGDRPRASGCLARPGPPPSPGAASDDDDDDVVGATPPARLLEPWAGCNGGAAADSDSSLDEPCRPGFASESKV

In the case of `CCN(CC)CCN(CCNCCc1ccc(O)c2[nH]c(=O)sc12)C(=O)CCOCCc1cccc(Cl)c1` [BA2, N-[2-(Diethylamino)ethyl]-N-(2-{[2-(4-hydroxy-2-oxo-2,3-dihydro-1,3-benzothiazol-7-yl)ethyl]amino}ethyl)-3-[2-(3-chlorophenyl)ethoxy]propanamide dihydrobromide], the “β2 Int Act” value [1] is reported as 0.7, the IC50 [2] is reported as greater than 0.794 µM and the IC50 [3] is reported as greater than 10 µM.
For `C[N+](C)(CCOCc1ccc(Cl)cc1)Cc1cnc([C@](O)(c2ccccc2)C2CCCCC2)o1` [MA11 Salt Form A, [2-(4-chloro-benzyloxy)-ethyl]-[2-((R)-cyclohexyl-hydroxy-phenyl-methyl)-oxazol-5-ylmethyl]-dimethyl-ammonium hemi-naphthalene-1,5-disulfonate], the GVS weight increase [4] was “less than 0.5 % w/w” and the “Fine Particle Fraction (FPF)” value [5] was greater than 60%.
With `CCN(CC)CCN(CCNCCc1ccc(O)c2[nH]c(=O)sc12)C(=O)CCOCCc1cccc2ccccc12` [BA1, N-[2-(Diethylamino)ethyl]-N-(2-{[2-(4-hydroxy-2-oxo-2,3-dihydro-1,3-benzothiazol-7-yl)ethyl]amino}ethyl)-3-[2-(1-naphthyl)ethoxy]propanamide dihydrobromide] the “β2 Int Act” value [1] was 0.8, the IC50 [3] was greater than 10 µM and the increase in resistance ([6]; BA1 1 μg/kg intratracheal) was 1380±333%. The “inhibition of methacholine-induced bronchoconstriction” value (“inhibition” for short) ([6]; BA1 1 μg/kg intratracheal) was 38%, the increase in resistance ([6]; BA1 3 μg/kg intratracheal) was 2090±239% and the “inhibition” value ([6]; BA1 3 μg/kg intratracheal) was 17%. For the same compound, the increase in resistance [6, 7] was 470±221% and 242±69% and the “inhibition” value [6, 7] was 81% and 89%.
With `O=c1[nH]c2c(O)ccc([C@@H](O)CNCCSCCCNCCc3ccccc3Cl)c2s1` [BA3, 7-[(1R)-2-({2-[(3-{[2-(2-Chlorophenyl)ethyl]amino}propyl)thio]ethyl}amino)-1-hydroxyethyl]-4-hydroxy-1,3-benzothiazol-2(3H)-one dihydrobromide] the “β2 Int Act” value [1] was 0.8.
